Reference: patent US4088772A, “Methanodibenzocycloheptapyrroles” (E. I. Du Pont de Nemours and Company, priority 1975, dated 1978)
Where a name gives a salt, the structure may show the parent alone. Read-outs that look alike come from different tables or passages of the source.

Key:
female white mice = experiment: animal or person; conditions: oral, mice; for ED50: Mus musculus, po
in vivo = conditions: mouse, in vivo, po
[1] = tested on: phenylquinone-induced writhing; experiment: Phenylquinone writhing test (analgesia); type: in vivo, mouse (Carworth CF1 S female); conditions: for ED50: Mus musculus
Description: This mouse test is predictive of analgesic response in humans. [E. Siegmund, R. Cadmus and G. Lee, Proc. Soc.
ED50 values were obtained graphically from the data.

[2] = read-out: Catatonia ED50, Table III
[3] = read-out: Exploratory Loss Visual ED50, Table III
[4] = read-out: Muscle Tone ED50, Table III
[5] = read-out: Ptosis ED50, Table III
[6] = read-out: Reflexes Grip ED50, Table III
[7] = read-out: Reflexes Lift ED50, Table III
[8] = read-out: Reflexes Pinna ED50, Table III
[9] = read-out: Reflexes Grip ED50, Table 1
[10] = read-out: Catatonia ED50, Table 1
[11] = read-out: Exploratory Loss Visual ED50, Table 1
[12] = read-out: Muscle Tone ED50, Table 1
[13] = read-out: Reflexes Lift ED50, Table 1
[14] = read-out: Reflexes Pinna ED50, Table 1

| SMILES | ED50 (female white mice; [2]) [mg/kg] | ED50 (female white mice; [3]) [mg/kg] | ED50 (female white mice; [4]) [mg/kg] | ED50 (female white mice; [5]) [mg/kg] | ED50 (female white mice; [6]) [mg/kg] | ED50 (female white mice; [7]) [mg/kg] | ED50 (female white mice; [8]) [mg/kg] | LD50 at 24 h (in vivo) [mg/kg] | ED50 ([1]; po, Table III, mice) [mg/kg] | ED50 (female white mice; [9]) [mg/kg] | ED50 (female white mice; [10]) [mg/kg] | ED50 (female white mice; [11]) [mg/kg] | ED50 (female white mice; [12]) [mg/kg] | ED50 (female white mice; read-out: Ptosis ED50, Table 1) [mg/kg] | ED50 (female white mice; [13]) [mg/kg] | ED50 (female white mice; [14]) [mg/kg] | ED50 (in vivo; Tremors ED50, Table 1, mice) [mg/kg] | ED50 ([1]; Table 1, oral, mice) [mg/kg] | other results |
| --- | --- | --- | --- | --- | --- | --- | --- | --- | --- | --- | --- | --- | --- | --- | --- | --- | --- | --- | --- |
| [N-]=[N+]=Nc1ccc2c(c1)[C@]13C[C@H]2c2ccccc2[C@H]1CN(CC1CCCC1)C3 (relative stereo) [Example 82, 5-Azido-2-cyclopentylmethyl-2,3,8,12b-tetrahydro-1H-3a,8-methanodibenzo[3,4:6,7]cyclohepta[1,2-c]-pyrrole] | 60 | 7 | 20 | 7 | > 324 | 60 | 36 | > 324 | < 130 | – | – | – | – | – | – | – | – | – | – |
| ON=Cc1ccc2c(c1)[C@]13C[C@H]2c2ccccc2[C@H]1CN(CC1CCCC1)C3 (relative stereo) [Example 83, 5-Formyl-2-cyclopentylmethyl-2,3,8,12b-tetrahydro-1H-3a,8-methanodibenzo[3,4:6,7]cyclohepta[1,2-c]pyrrole Oxime Hydrochloride] | 36 | 20 | 36 | 36 | > 324 | 60 | 20 | > 324 | 2.7 | – | – | – | – | – | – | – | – | – | – |
| CNC(=O)ON=Cc1ccc2c(c1)[C@]13C[C@H]2c2ccccc2[C@H]1CN(CC1CCCC1)C3 (relative stereo) [Example 84, 5-Formyl-2-cyclopentylmethyl-2,3,8,12b-tetrahydro-1H-3a,8-methanodibenzo[3,4:6,7]cyclohepta[1,2-c]pyrrole Oxime-O-(N-methylcarbamate) Hydrochloride] | 100 | 60 | 100 | 36 | > 324 | 200 | 100 | > 324 | – | – | – | – | – | – | – | – | – | – | ED50 ([1]; Table III, oral, mice): < 130 mg/kg |
| N#Cc1ccc2c(c1)[C@]13C[C@H]2c2ccccc2[C@H]1CN(CC1CCCC1)C3 (relative stereo) [Example 85, 5-Cyano-2-cyclopentylmethyl-2,3,8,12b-tetrahydro-1H-3a,8-methanodibenzo[3,4:6,7]cyclohepta[1,2-c]-pyrrole Hydrochloride] | 15 | 4.4 | 15 | 4.4 | > 324 | 17 | 9.7 | 300 | 1.7 | – | – | – | – | – | – | – | – | – | – |
| OCc1ccc2c(c1)[C@]13C[C@H]2c2ccccc2[C@H]1CN(CC1CCCC1)C3 (relative stereo) [Example 86, 2-Cyclopentylmethyl-2,3,8,12b-tetrahydro-1H-3a,8-methanodibenzo[3,4:6,7]cyclohepta[1,2-c]pyrrole-5-methanol Hydrochloride] | 60 | 12 | 60 | 7 | 200 | 36 | 20 | > 324 | 26 | – | – | – | – | – | – | – | – | – | – |
| FCc1ccc2c(c1)[C@]13C[C@H]2c2ccccc2[C@H]1CN(CC1CCCC1)C3 (relative stereo) [Example 87, 5-Fluoromethyl-2-cyclopentylmethyl-2,3,8,12b-tetrahydro-1H-3a,8-methanodibenzo[3,4:6,7]cyclohepta[1,2-c]-pyrrole Hydrochloride] | 36 | 12 | 36 | 7 | 300 | 36 | 36 | > 324 | 78 | – | – | – | – | – | – | – | – | – | – |
| CNS(=O)(=O)c1ccc2c(c1)[C@]13C[C@H]2c2ccccc2[C@H]1CN(CC1CCCC1)C3 (relative stereo) [Example 88, 2-Cyclopentylmethyl-2,3,8,12b-tetrahydro-1H-3a,8-methanodibenzo[3,4:6,7]cyclohepta[1,2-c]pyrrole-5-N-methylsulfonamide Hydrochloride] | 300 | 20 | 200 | 36 | > 324 | 200 | 100 | > 324 | < 130 | – | – | – | – | – | – | – | – | – | – |
| c1ccc2c(c1)C1CC3(CN(CC4CCCC4)CC23)c2ccccc21 (single isomer, unassigned; (-)) [(-)-Cyclopentylmethyl, 2-Cyclopentylmethyl-2,3,8,12b-tetrahydro-trans-1H,-3a,8-methanodibenzo[3,4:6,7]cyclohepta[1,2-c]pyrrole] | – | – | – | – | – | – | – | > 324 | – | 200 | – | – | – | – | – | – | – | – | Catatonia ED50 (female white mice; Table 1): 7 mg/kg; Exploratory Loss Visual ED50 (female white mice; Table 1): < 4 mg/kg; Muscle Tone ED50 (female white mice; Table 1): < 4 mg/kg; Ptosis ED50 (female white mice; Table 1): < 4 mg/kg; Reflexes Lift ED50 (female white mice; Table 1): 4 mg/kg; Reflexes Pinna ED50 (female white mice; Table 1): 4 mg/kg; ED50 (in vivo): > 324 mg/kg; Phenylquinone Analgesia ED50 ([1]; Table 1, oral, mice): 1.2 mg/kg |
| [O-][N+]1(CC2CCCC2)CC2c3ccccc3C3CC2(C1)c1ccccc13 (centres unmarked) [Cyclopentylmethyl-N-oxide, N-Oxide of 2-cyclopentylmethyl-2,3,8,12b-tetrahydro-1H-3a,8-methanodibenzo[3,4:6,7]cyclohepta[1,2-c]-pyrrole] | – | – | – | – | – | – | – | > 324 | – | > 324 | 36 | 12 | 12 | ≤ 4 | 20 | 7 | – | – | ED50 (in vivo): > 324 mg/kg; ED50 ([1]; po, Table 1, mice): 24 mg/kg |
| CN1CC2c3ccccc3C3CC2(C1)c1ccccc13 (centres unmarked) [Example 1, 2-Methyl-2,3,8,12b-tetrahydro-1H-3a,8-methanodibenzo[3,4:6,7]cyclohepta[1,2-c]pyrrole] | – | – | – | – | – | – | – | 150 | – | 150 | 30 | 50 | 100 | 50 | 30 | 30 | 30 | 5.1 | – |
| c1ccc2c(c1)C1CC3(CN(CC4CC4)CC23)c2ccccc21 (centres unmarked) [Example 6, 2-Cyclopropylmethyl-2,3,8,12b-tetrahydro-1H-3a,8-methanodibenzo[3,4:6,7]cyclohepta[1,2-c]pyrrole] | – | – | – | – | – | – | – | 300 | – | 100 | 20 | 20 | 12 | 20 | 20 | 7 | 100 | 4.5 | – |
| C=CCN1CC2c3ccccc3C3CC2(C1)c1ccccc13 (centres unmarked) [Example 10, 2-Allyl-2,3,8,12b-tetrahydro-1H-3a,8-methanodibenzo-[3,4:6,7]cyclohepta[1,2-c]pyrrole] | – | – | – | – | – | – | – | > 324 | – | 150 | 5 | 4.5 | 3.2 | < 3 | 6 | 4 | 187 | 1.9 | – |
| CCOC(=O)CCCN1CC2c3ccccc3C3CC2(C1)c1ccccc13 (centres unmarked) [Example 11, Ethyl 2,3,8,12b-Tetrahydro-1H-3a,8-methanodibenzo-[3,4:6,7]cyclohepta[1,2-c]pyrrole-2-butyrate] | – | – | – | – | – | – | – | > 324 | – | > 324 | 100 | 100 | 200 | 100 | > 324 | 100 | – | – | ED50 (in vivo): > 324 mg/kg; ED50 ([1]; po, Table 1, mice): 26 mg/kg |
| CCN1CC2c3ccccc3C3CC2(C1)c1ccccc13 (centres unmarked) [Example 12, 2-Ethyl-2,3,8,12b-tetrahydro-1H-3a,8-methanodibenzo[3,4:6,7]cyclohepta[1,2-c]pyrrole] | – | – | – | – | – | – | – | 200 | – | 100 | 12 | 20 | 36 | 12 | 12 | 12 | 200 | 4.3 | – |
| CCCCN1CC2c3ccccc3C3CC2(C1)c1ccccc13 (centres unmarked) [Example 13, 2-n-Butyl-2,3,8,12b-tetrahydro-1H-3a,8-methanodibenzo[3,4:6,7]cyclohepta[1,2-c]pyrrole] | – | – | – | – | – | – | – | > 324 | – | 200 | 12 | 12 | 12 | 7 | 7 | ≤ 4 | 300 | 10.5 | – |
| CCCCCCCCN1CC2c3ccccc3C3CC2(C1)c1ccccc13 (centres unmarked) [Example 16, 2-n-Octyl-2,3,8,12b-tetrahydro-1H-3a,8-methanodibenzo[3,4:6,7]cyclohepta[1,2-c]pyrrole] | – | – | – | – | – | – | – | > 324 | – | > 324 | – | 20 | – | – | 20 | 20 | – | – | ED50 (in vivo): > 324 mg/kg; ED50 ([1]; po, Table 1, mice): 12 mg/kg |
| CCC(CC)CN1CC2c3ccccc3C3CC2(C1)c1ccccc13 (centres unmarked) [Example 17, 2-(2-Ethylbutyl)-2,3,8,12b-tetrahydro-1H-3a,8-methanodibenzo[3,4:6,7]cyclohepta[1,2-c]pyrrole] | – | – | – | – | – | – | – | > 324 | – | > 324 | 36 | 200 | 100 | 100 | 200 | 200 | – | – | ED50 (in vivo): > 324 mg/kg; ED50 ([1]; po, Table 1, mice): 48 mg/kg |
| C#CCN1CC2c3ccccc3C3CC2(C1)c1ccccc13 (centres unmarked) [Example 18, 2-Propargyl-2,3,8,12b-tetrahydro-1H-3a,8-methanodibenzo[3,4:6,7]cyclohepta[1,2-c]pyrrole] | – | – | – | – | – | – | – | > 324 | – | > 324 | 100 | 200 | 300 | 200 | 200 | > 324 | > 324 | > 135 | – |
